Source: US9499493B2, “2,4-pyrimidinediamine compounds and their uses” (Rigel Pharmaceuticals, Inc., priority 2002, dated 2016)
Blank lines part the entries; values can stand above or below the molecule they belong to.

Tests used:
[1] = test system: cultured human mast cells (CHMC); experiment: CHMC low cell density ionomycin activation: tryptase assay; assay type: cell-based
[2] = test system: FcγRI-mediated degranulation; experiment: FcγRI receptor-mediated degranulation (activation with anti-human IgG Fab fragment); assay type: cell-based; details: cells not primed with IgE, activated with rabbit anti-human IgG Fab fragment
[3] = test system: cultured human mast cells (CHMC); experiment: CHMC low cell density IgE activation: tryptase assay; assay type: cell-based; details: anti-IgE
Procedure, shortened: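 Cells pelleted, taken up in warm MT, plated at 1000-1500/well, held 1 hr 37° C. Anti-IgE added, 30 min 37° C. Plates spun; supernatant mixed with tryptase substrate, 30 min RT.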

[4] = test system: cultured human mast cells (CHMC); experiment: CHMC high cell density IgE activation: TNFalpha; assay type: cell-based; details: anti-IgE activation; read-out: CHMC high density TNF-alpha
Description: (§1) Inhibition of degranulation was measured at both low and high cell density by quantifying the release of the granule specific factors tryptase, histamine and hexosaminidase. Inhibition of release and/or synthesis of lipid mediators was assessed by measuring the release of leukotriene LTC4 and inhibition of release and/or synthesis of cytokines was monitored by quantifying TNF-α, IL-6 and IL-13. Tryptase and hexosaminidase were quantified using fluorogenic substrates as described in their respective examples. […] The protocols of the various assays are provided below.
(§2) After sensitizing, cells are counted, pelleted (1000 rpm, 5-10 minutes), and resuspended at 1-2×10^6 cells/ml in MT buffer. Add 100 ul of cell suspension to each well and 100 ul of compound dilutions. The final vehicle concentration is 0.5% DMSO. Incubate at 37° C. (5% CO2) for 1 hour. After 1 hour of compound treatment, stimulate cells with 6× anti-IgE. Mix wells with the cells and allow plates to incubate at 37° C. (5% CO2) for one hour. After 1 hour incubation, pellet cells (10 minutes, 1000 RPM) and collect 200 ul per well of the supernatant, being careful not to disturb pellet. Place the supernatant plate on ice. During the 7-hour step (see next) perform tryptase assay on supernatant that had been diluted 1:500. Resuspend cell pellet in 240 ul of CM media containing 0.5% DMSO and corresponding concentration of compound. Incubate CHMC cells for 7 hours at 37° C. (5% CO2). After incubation, pellet cells (1000 RPM, 10 minutes) and collect 225 ul per well and place in −80° C. until ready to perform ELISAS. ELISAS are performed on appropriately diluted samples (determined empirically for each donor cell population so that the sample measurement falls within the standard curve) following the supplier's instructions.

[5] = test system: cultured human mast cells (CHMC); experiment: CHMC low cell density IgE activation: LTC4 assay; assay type: cell-based; details: Homo sapiens, Mast cell, anti-IgE
Description: Pellet CHMC cells (980 rpm, 10 min) and resuspend in pre-warmed MT. Add 65 ul of cells to each 96-well plate. Depending on the degranulation activity for each particular CHMC donor, load 1000-1500 cells/well. Mix four times followed by a 1 hr incubation at 37° C. […] Stimulate cells by adding 25 ul of 6× anti-IgE solution to the appropriate plates. Add 25 ul MT to un-stimulated control wells. Mix twice following addition of the anti-IgE. Incubate at 37° C. for 30 minutes. […] Spin plates at 1000 rpm for 10 min to pellet cells. Transfer 25 ul of supernatant to a 96-well black bottom plate and add 100 ul of freshly diluted tryptase substrate solution to each well. Incubate plates at room temperature for 30 min.
Leukotriene C4 (LTC4) is also quantified using an ELISA kit on appropriately diluted supernatant samples (determined empirically for each donor cell population so that the sample measurement falls within the standard curve) following the supplier's instructions.

[6] = test system: cultured human mast cells (CHMC); experiment: CHMC high cell density IgE activation: hexos (hexosaminidase) release; assay type: cell-based; details: anti-IgE activation
Description: as §1, §2

[7] = test system: cultured human mast cells (CHMC); experiment: CHMC high cell density IgE activation: tryptase; assay type: cell-based; details: anti-IgE activation
Description: as §2

[8] = test system: cultured human mast cells (CHMC); experiment: CHMC high cell density IgE activation: histamine; assay type: cell-based; details: anti-IgE activation
Description: as §1, §2

[9] = test system: cultured human mast cells (CHMC); experiment: CHMC high cell density IgE activation: LTC4; assay type: cell-based; details: anti-IgE activation
Description: as §1, §2

[10] = test system: bone marrow derived mast cells (BMMC); experiment: BMMC high cell density IgE activation: hexosaminidase; assay type: cell-based, mouse; details: anti-IgE, second part of TABLE 1, read-out: BMMC anti-IgE hexos. IC50
Description: (§3) After sensitizing, cells are counted, pelleted (1000 rpm, 5-10 minutes), and resuspended at 1-3×10^6 cells/ml in MT buffer. Add 100 ul of cell suspension to each well and 100 ul of compound dilutions. The final vehicle concentration is 0.5% DMSO. Incubate at 37° C. (5% CO2) for 1 hour. After 1 hour of compound treatment, stimulate cells with 6× stimulus (60 ng/ml DNP-BSA). Mix wells with the cells and allow plates to incubate at 37° C. (5% CO2) for one hour. After 1 hour incubation, pellet cells (10 minutes, 1000 RPM) and collect 200 ul per well of the supernatant, being careful not to disturb pellet, and transfer to a clean tube or 96-well plate. Place the supernatant plate on ice. During the 4-5 hour step (see next) perform the hexosiminidase assay. Resuspend cell pellet in 240 ul WEI-conditioned media containing 0.5% DMSO and corresponding concentration of compound. Incubate BMMC cells for 4-5 hours at 37° C. (5% CO2). After incubation, pellet cells (1000 RPM, 10 minutes) and collect 225 ul per well and place in −80° C. until ready to perform ELISAS. ELISAS are performed on appropriately diluted samples (determined empirically for each donor cell population so that the sample measurement falls within the standard curve) following the supplier's instructions.
Hexosaminidase assay: In a solid black 96-well assay plate, add 50 uL hexosaminidase substrate (4-methylumbelliferyl-N-acetyl-(3-D-glucosaminide; 2 mM) to each well. Add 50 uL of BMMC cell supernatant (see above) to the hexoseaminidase substrate, place at 37° C. for 30 minutes and read the plate at 5, 10, 15, and 30 minutes on a spectrophotometer.

[11] = test system: bone marrow derived mast cells (BMMC); experiment: BMMC high cell density IgE activation: histamine; assay type: cell-based, mouse; details: anti-IgE, second part of TABLE 1
Description: as §1, §3

[12] = test system: bone marrow derived mast cells (BMMC); experiment: BMMC high cell density IgE activation: LTC4; assay type: cell-based, mouse; details: anti-IgE, second part of TABLE 1
Description: as §1, §3

[13] = test system: bone marrow derived mast cells (BMMC); experiment: BMMC high cell density IgE activation: TNFalpha; assay type: cell-based, mouse; details: anti-IgE, second part of TABLE 1, read-out: BMMC anti-IgE TNF-alpha IC50
Description: as §1, §3

[14] = test system: bone marrow derived mast cells (BMMC); experiment: BMMC high cell density IgE activation: IL-6; assay type: cell-based, mouse; details: anti-IgE, second part of TABLE 1
Description: as §1, §3

SMILES: Fc1cnc(Nc2cccc(OCCN3CCOCC3)c2)nc1Nc1ccc2c(c1)OCCO2 [R926486, N4-(3,4-Ethylenedioxyphenyl)-5-fluoro-N2-[3-[2-(N-morpholino)ethyleneoxy]phenyl]-2,4-pyrimidinediamine]
- IC50 [3]: 647 nM
- IC50 [1]: 7400 nM
- IC50 [4]: 455 nM

SMILES: COC(=O)c1cc2cc(Nc3ncc(F)c(Nc4ccc5[nH]c(C(=O)OC)cc5c4)n3)ccc2[nH]1 [R926593]
- IC50 ([3]; Homo sapiens, Mast cell): 680 nM
- IC50 [5]: 495 nM
- IC50 ([1]; Homo sapiens, Mast cell): 8300 nM

SMILES: CC(C)Oc1ccc(Nc2nc(Nc3ccc4oc(C(=O)N5CCCC5)cc4c3)ncc2F)cc1 [R926703, 5-Fluoro-N4-(4-isopropoxyphenyl)-N2-[2-(N-pyrrolidino)carbonylbenzofuran-5-yl]-2,4-pyrimidinediamine]
- IC50 [3]: 525 nM
- IC50 [1]: > 10000 nM
- IC50 [6]: 1510 nM
- IC50 [7]: 1950 nM
- IC50 [8]: > 2000 nM
- IC50 [9]: 724 nM
- IC50 [4]: > 2000 nM

SMILES: Cc1cc(Nc2ncc(F)c(Nc3ccc4c(c3)NC(=O)C(F)(F)O4)n2)cc(Cl)c1O [R926971]
- FcγRI-mediated degranulation (in words) [2]: inhibit FcγRI-mediated degranulation

SMILES: Oc1cccc(Nc2ncc(F)c(Nc3ccc(OCc4nc(-c5ccccc5)no4)cc3)n2)c1 [R935138, 5-Fluoro-N2-(3-hydroxyphenyl)-N4-[4-(3-phenyl-1,2,4-oxadiazol-5-yl)methyleneoxyphenyl]-2,4-pyrimidinediamine]
- IC50 [3]: 96 nM
- IC50 [1]: 552 nM
- IC50 [10]: < 220 nM
- IC50 [11]: < 220 nM
- IC50 [12]: 373 nM
- IC50 [13]: 409 nM
- IC50 [14]: < 220 nM

SMILES: O=C1Nc2cc(Nc3ncc(F)c(Nc4ccc5c(c4)NC(=O)C(F)(F)O5)n3)ccc2OC1(F)F [R940352, N2,N4-[(2,2-Difluoro-4H-benzo[1,4]oxazin-3-one)-6-yl]-5-fluoro-2,4-pyrimidinediamine]
- IC50 [3]: 101 nM
- IC50 [1]: > 10000 nM
- FcγRI-mediated degranulation (in words) [2]: inhibit FcγRI-mediated degranulation

SMILES: Fc1cnc(Nc2ccc(OCc3nnn[nH]3)cc2)nc1Nc1ccc(OCc2nnn[nH]2)cc1 [R945033, N2,N4-Bis[4-(1H-1,2,3,4-tetrazol-5-yl)methyleneoxyphenyl]-5-fluoro-2,4-pyrimidinediamine]
- IC50 [3]: > 10000 nM
- IC50 [1]: > 10000 nM
- IC50 [6]: 8150 nM
- IC50 [7]: 8870 nM
- IC50 [8]: > 10000 nM
- IC50 [9]: 5980 nM

Second part, the molecule after the results:

- IC50 [1]: > 10000 nM
- FcγRI-mediated degranulation (in words) [2]: inhibit FcγRI-mediated degranulation
SMILES: CNC(=O)COc1cccc(Nc2ncc(F)c(Nc3ccc(OC(F)(F)F)c(Cl)c3)n2)c1 [R920410, N4-(3-Chloro-4-trifluoromethoxyphenyl)-5-fluoro-N2-[3-(N-methylamino)carbonylmethyleneoxyphenyl]-2,4-pyrimidinediamine]

- FcγRI-mediated degranulation (in words) [2]: inhibit FcγRI-mediated degranulation
SMILES: CNC(=O)COc1cccc(Nc2ncc(F)c(Nc3ccc4c(c3)NC(=O)C(F)(F)O4)n2)c1 [R921303, N4-[(2,2-Difluoro-4H-benzo[1,4]oxazin-3-one)-6-yl]-5-fluoro-N2-[3-(methylaminocarbonylmethyleneoxy)phenyl]-2,4-pyrimidinediamine]

- IC50 [3]: 239 nM
- IC50 [1]: > 10000 nM
- IC50 [10]: 981 nM
- IC50 [11]: 306 nM
- IC50 [12]: 1210 nM
- IC50 [13]: 1130 nM
- IC50 [14]: 486 nM
SMILES: Cc1cc(Nc2nc(Nc3cccc(OCC(=O)N4CCOCC4)c3)ncc2F)cc(Cl)c1O [R940265, N4-(3-Chloro-4-hydroxy-5-methylphenyl)-5-fluoro-N2-[3-(N-morpholino)carbonylmethyleneoxyphenyl]-2,4-pyrimidinediamine]

- IC50 [3]: 211 nM
- IC50 [1]: > 10000 nM
- IC50 [10]: 136 nM
- IC50 [11]: 73 nM
- IC50 [12]: 332 nM
- IC50 [13]: 251 nM
- IC50 [14]: < 56 nM
SMILES: CNC(=O)COc1cccc(Nc2ncc(F)c(Nc3cccc(C(C)(C)C)c3)n2)c1 [R940276, N4-(3-tert-Butylphenyl)-N2-[3-(N-methylamino)carbonylmethyleneoxyphenyl]-5-fluoro-2,4-pyrimidinediamine]

- IC50 [3]: 63 nM
- FcγRI-mediated degranulation (in words) [2]: inhibit FcγRI-mediated degranulation
SMILES: CNC(=O)COc1cccc(Nc2ncc(F)c(Nc3ccc4c(n3)NC(=O)C(C)(C)O4)n2)c1 [R940347, N4-[(2,2-Dimethyl-4H-5-pyrido[1,4]oxazin-3-one)-6-yl]-5-fluoro-N2-[3-(methylaminocarbonylmethyleneoxy)phenyl]-2,4-pyrimidinediamine]

- IC50 [1]: 8800 nM
- IC50 [6]: 1280 nM
- IC50 [7]: 1750 nM
- IC50 [8]: 547 nM
- IC50 [4]: > 2000 nM
SMILES: Cc1nc(COc2cccc(Nc3ncc(F)c(Nc4ccc5c(c4)OCCO5)n3)c2)no1 [R945128, N4-(3,4-Ethylenedioxyphenyl)-5-fluoro-N2-[3-(5-methyl-1,2,4-oxadiazol-3-yl)methyleneoxyphenyl]-2,4-pyrimidinediamine]

- IC50 [3]: 178 nM
- IC50 [1]: > 10000 nM
- IC50 [10]: < 220 nM
- IC50 [11]: > 2000 nM
- IC50 [12]: 401 nM
- IC50 [13]: < 220 nM
- IC50 [14]: < 220 nM
SMILES: CNC(=O)CNc1cccc(Nc2ncc(F)c(Nc3ccc4c(c3)OCCO4)n2)c1 [R950191]
